Measurements taken from patent US10280198B2, “Therapeutic agents for reducing parathyroid hormone levels” (KAI PHARMACEUTICALS, INC., priority 2009, dated 2019).
Read-outs that look alike come from different tables or passages of the source. Square brackets hold non-standard residues; d marks the D form. Peptide text beside a SMILES is read from it. dNle = CCCC[C@@H](N)C(=O)O; dNva = CCC[C@@H](N)C(=O)O

How the values were obtained:
plasma PTH = test: In vivo PTH lowering after IV bolus in isoflurane-anesthetized normal Sprague Dawley rats; parameters: species or system rat; details: normal rats, AUC 1-4 h
Method: The peptides were administered intravenously at a dose of 0.5 mg/kg into isoflurane-anesthetized normal Sprague Dawley rats. A control group of rats was treated with saline. Blood was drawn prior to dosing and every hour for 4 hours. Rats were maintained under isoflurane anesthesia for the entire study. […] Percent PTH reduction was calculated according to the following formula: AUCcmpd treated/AUCsaline control*100.
An intravenous (IV) bolus of saline was used as a control. Plasma (K2EDTA) PTH levels were assessed prior to dosing and 1, 2, 3 and 4 hours after dosing. Rats were maintained under isoflurane anesthesia for the entire study. […] In FIG. 2B, PTH is shown as percent of the baseline pre-dose value.
A series of compounds having an L-amino acid residue substituted for a D-amino acid residue were prepared. The compounds were administered as an IV bolus to normal Sprague Dawley rats at a dose of 0.5 mg/kg. An intravenous (IV) bolus of saline was used as a control. […] Rats were maintained under isoflurane anesthesia for the entire study.

[1] = tested on: rat peritoneal mast cells; test: In vitro histamine induction in rat peritoneal mast cells; type: cell-based
Method: To further evaluate the relationship between compound structure and histamine release, a series of compounds was prepared and assessed for their ability to trigger induction of histamine in an in vitro assay using rat peritoneal mast cells. In this assay, compounds are incubated at 10 μM for 15 minutes at 37° C. with cells isolated from peritoneal lavage of SD rats. Following incubation, cell medium is collected and histamine is determined.
Accordingly, and as can be appreciated in view of the PTH data and the histamine data described hereinabove, in one embodiment, a compound that has activity to decrease PTH level in a subject in the absence of a histamine response is contemplated. In certain embodiments, absence of a histamine response intends a dose of the compound that produces a less than 10-fold, more preferably 8-fold, still more preferably 5-fold, and even still more preferably 3-fold, increase in histamine, measured in vitro in an assay as described herein, where the fold change is determined based on histamine levels before incubation with the compound and after 15 minutes incubation with compound. In a specific embodiment, the histamine response is determined in an in vitro assay using rat peritoneal mast cells isolated from peritoneal lavage of normal Sprague Dawley rats, and where the fold change is determined based on histamine levels before incubation with the compound and after 15 minutes incubation with compound. In the studies conducted herein, the in vitro evaluation of histamine release was performed using isolated rat peritoneal mast cells isolated by peritoneal lavage using cold HBSS+25 mM HEPES pH 7.4 containing heparin (5 u/mL). Cells were washed twice in stimulation buffer (HBSS+25 mM HEPES pH 7.4) and incubated with 10 μM of compound in stimulation buffer (HBSS+25 mM HEPES pH 7.4) for 15 minutes in a 96-well plate ([…]) at 37° C. Cell supernatant was analyzed for histamine using histamine EIA kit (Cayman #589651).
For in vitro evaluation of histamine release, isolated rat peritoneal mast cells were isolated by performing peritoneal lavage using cold HBSS+25 mM HEPES pH 7.4 containing heparin (5 u/mL). Cells were washed twice in stimulation buffer (HBSS+25 mM HEPES pH 7.4) and incubated with 10 μM of compound in stimulation buffer (HBSS+25 mM HEPES pH 7.4) for 15 minutes in a 96-well plate (10^6/well) at 37° C. Cell supernatant was analyzed for histamine using histamine EIA kit (Cayman #589651).

Row | Histamine in vitro Fold change of non-treated at 10 uM [1] [fold] | Structure (SMILES) | 0.5 mg/kg IV bolus % PTH AUC of saline control (plasma PTH; Table 6) [%] | Histamine in vitro Fold change of non-treated at 10 uM ([1]; Table 9, 10 μM, 15 minutes, 37° C.) [fold] | 0.5 mg/kg IV bolus % PTH AUC of saline control (plasma PTH; Table 7) [%]
1 | 1.9 | CC(=O)N[C@H](CS)C(=O)N[C@H](CCC(N)=O)C(=O)N[C@H](CCCNC(=N)N)C(=O)N[C@H](CCCNC(=N)N)C(=O)N[C@H](CCCNC(=N)N)C(=O)N[C@H](C)C(=O)N[C@H](CCCNC(=N)N)C(N)=O [SEQ ID NO: 99, Ac-cqrrrar-NH2] (Ac-[dC][dQ][dR][dR][dR][dA][dR]-NH2) | 24 | – | –
2 | 1.1 | CC(=O)N[C@H](CS)C(=O)N[C@@H](C(=O)N[C@H](CCCNC(=N)N)C(=O)N[C@H](CCCNC(=N)N)C(=O)N[C@H](CCCNC(=N)N)C(=O)N[C@H](C)C(=O)N[C@H](CCCNC(=N)N)C(N)=O)[C@H](C)O [SEQ ID NO: 100, Ac-ctrrrar-NH2] (Ac-[dC][dT][dR][dR][dR][dA][dR]-NH2) | 23 | – | –
3 | 0.9 | CC(=O)N[C@H](CS)C(=O)N[C@H](CO)C(=O)N[C@H](CCCNC(=N)N)C(=O)N[C@H](CCCNC(=N)N)C(=O)N[C@H](CCCNC(=N)N)C(=O)N[C@H](C)C(=O)N[C@H](CCCNC(=N)N)C(N)=O [SEQ ID NO: 102, Ac-csrrrar-NH2] (Ac-[dC][dS][dR][dR][dR][dA][dR]-NH2) | 13 | – | –
4 | 1.6 | CC(=O)N[C@H](CS)C(=O)N[C@H](Cc1c[nH]cn1)C(=O)N[C@H](CCCNC(=N)N)C(=O)N[C@H](CCCNC(=N)N)C(=O)N[C@H](CCCNC(=N)N)C(=O)N[C@H](C)C(=O)N[C@H](CCCNC(=N)N)C(N)=O [SEQ ID NO: 103, Ac-chrrrar-NH2] (Ac-[dC][dH][dR][dR][dR][dA][dR]-NH2) | 1 | – | –
5 | 6.8 | CC(=O)N[C@H](CS)C(=O)N[C@H](Cc1ccccc1)C(=O)N[C@H](CCCNC(=N)N)C(=O)N[C@H](CCCNC(=N)N)C(=O)N[C@H](CCCNC(=N)N)C(=O)N[C@H](C)C(=O)N[C@H](CCCNC(=N)N)C(N)=O [SEQ ID NO: 104, Ac-cfrrrar-NH2] (Ac-[dC][dF][dR][dR][dR][dA][dR]-NH2) | 0 | – | –
6 | 1.8 | CC(=O)N[C@H](CS)C(=O)N[C@H](CCCNC(=N)N)C(=O)N[C@H](CCCNC(=N)N)C(=O)NCC(=O)N[C@H](CCCNC(=N)N)C(=O)N[C@H](C)C(=O)N[C@H](CCCNC(=N)N)C(N)=O [SEQ ID NO: 105, Ac-crrGrar-NH2] (Ac-[dC][dR][dR]G[dR][dA][dR]-NH2) | 69 | – | –
7 | 1.1 | CC(=O)N[C@H](CS)C(=O)N[C@H](CCCNC(=N)N)C(=O)N[C@H](CCCNC(=N)N)C(=O)N1CCC[C@@H]1C(=O)N[C@H](CCCNC(=N)N)C(=O)N[C@H](C)C(=O)N[C@H](CCCNC(=N)N)C(N)=O [SEQ ID NO: 106, Ac-crrprar-NH2] (Ac-[dC][dR][dR][dP][dR][dA][dR]-NH2) | 68 | – | –
8 | – | CC(=O)N[C@H](CS)C(=O)N[C@H](CCCNC(=N)N)C(=O)N[C@H](CCCNC(=N)N)C(=O)N[C@H](CCC(=O)O)C(=O)N[C@H](CCCNC(=N)N)C(=O)N[C@H](C)C(=O)N[C@H](CCCNC(=N)N)C(N)=O [SEQ ID NO: 107, Ac-crrerar-NH2] (Ac-[dC][dR][dR][dE][dR][dA][dR]-NH2) | 56 | 0.6 | –
9 | 1.2 | CC(=O)N[C@H](CS)C(=O)N[C@H](CCCNC(=N)N)C(=O)N[C@H](CCCNC(=N)N)C(=O)N[C@@H](C(=O)N[C@H](CCCNC(=N)N)C(=O)N[C@H](C)C(=O)N[C@H](CCCNC(=N)N)C(N)=O)[C@H](C)O [SEQ ID NO: 108, Ac-crrtrar-NH2] (Ac-[dC][dR][dR][dT][dR][dA][dR]-NH2) | 13 | – | –
10 | 2.3 | CC(=O)N[C@H](CS)C(=O)N[C@H](CCCNC(=N)N)C(=O)N[C@H](CCCNC(=N)N)C(=O)N[C@H](Cc1c[nH]cn1)C(=O)N[C@H](CCCNC(=N)N)C(=O)N[C@H](C)C(=O)N[C@H](CCCNC(=N)N)C(N)=O [SEQ ID NO: 109, Ac-crrhrar-NH2] (Ac-[dC][dR][dR][dH][dR][dA][dR]-NH2) | 9 | – | –
11 | 6.2 | CC(=O)N[C@H](CS)C(=O)N[C@H](CCCNC(=N)N)C(=O)N[C@H](CCCNC(=N)N)C(=O)N[C@H](Cc1ccccc1)C(=O)N[C@H](CCCNC(=N)N)C(=O)N[C@H](C)C(=O)N[C@H](CCCNC(=N)N)C(N)=O [SEQ ID NO: 110, Ac-crrfrar-NH2] (Ac-[dC][dR][dR][dF][dR][dA][dR]-NH2) | 6 | – | –
12 | 2.0 | CC(=O)N[C@H](CS)C(=O)N[C@H](CCCNC(=N)N)C(=O)N[C@H](CCCNC(=N)N)C(=O)N[C@H](CO)C(=O)N[C@H](CCCNC(=N)N)C(=O)N[C@H](C)C(=O)N[C@H](CCCNC(=N)N)C(N)=O [SEQ ID NO: 111, Ac-crrsrar-NH2] (Ac-[dC][dR][dR][dS][dR][dA][dR]-NH2) | 4 | – | –
13 | 1.2 | CC(=O)N[C@H](CS)C(=O)N[C@H](CCCNC(=N)N)C(=O)N[C@H](CCCNC(=N)N)C(=O)N[C@H](CCC(N)=O)C(=O)N[C@H](CCCNC(=N)N)C(=O)N[C@H](C)C(=O)N[C@H](CCCNC(=N)N)C(N)=O [SEQ ID NO: 112, Ac-crrqrar-NH2] (Ac-[dC][dR][dR][dQ][dR][dA][dR]-NH2) | 4 | – | –
14 | 1.9 | CC(=O)N[C@H](CS)C(=O)N[C@H](CCCNC(=N)N)C(=O)N[C@H](CCCNC(=N)N)C(=O)N[C@@H](C(=O)N[C@H](CCCNC(=N)N)C(=O)N[C@H](C)C(=O)N[C@H](CCCNC(=N)N)C(N)=O)C(C)C [SEQ ID NO: 113, Ac-crrvrar-NH2] (Ac-[dC][dR][dR][dV][dR][dA][dR]-NH2) | 3 | – | –
15 | 4.5 | CC(=O)N[C@H](CS)C(=O)N[C@H](CCCNC(=N)N)C(=O)N[C@H](CCCNC(=N)N)C(=O)N[C@H](CC(C)C)C(=O)N[C@H](CCCNC(=N)N)C(=O)N[C@H](C)C(=O)N[C@H](CCCNC(=N)N)C(N)=O [SEQ ID NO: 114, Ac-crrlrar-NH2] (Ac-[dC][dR][dR][dL][dR][dA][dR]-NH2) | 1 | – | –
16 | 3.4 | CC[C@@H](C)[C@@H](NC(=O)[C@@H](CCCNC(=N)N)NC(=O)[C@@H](CCCNC(=N)N)NC(=O)[C@@H](CS)NC(C)=O)C(=O)N[C@H](CCCNC(=N)N)C(=O)N[C@H](C)C(=O)N[C@H](CCCNC(=N)N)C(N)=O [SEQ ID NO: 115, Ac-crrirar-NH2] (Ac-[dC][dR][dR][dI][dR][dA][dR]-NH2) | 0 | – | –
17 | 9.2 | CCCC[C@@H](NC(=O)[C@@H](CCCNC(=N)N)NC(=O)[C@@H](CCCNC(=N)N)NC(=O)[C@@H](CCCNC(=N)N)NC(=O)[C@@H](CCCC)NC(=O)[C@@H](CS)NC(C)=O)C(=O)N[C@H](CCCNC(=N)N)C(N)=O [SEQ ID NO: 130, Ac-c-dNle-rrr-dNle-r-NH2] (Ac-[dC][dNle][dR][dR][dR][dNle][dR]-NH2) | – | – | 54
18 | 1.8 | CCC[C@@H](NC(=O)[C@@H](CCCNC(=N)N)NC(=O)[C@@H](CCCNC(=N)N)NC(=O)[C@@H](CCCNC(=N)N)NC(=O)[C@@H](C)NC(=O)[C@@H](CS)NC(C)=O)C(=O)N[C@H](CCCNC(=N)N)C(N)=O [SEQ ID NO: 131, Ac-carrr-dNva-r-NH2] (Ac-[dC][dA][dR][dR][dR][dNva][dR]-NH2) | – | – | 54
